Results published in patent publication US20260000496A1, “MATERIALS AND METHODS FOR DRUG-INDUCED GINGIVAL OVERGROWTH” (Optimed Technology, Inc., priority 2019, published 2026).

Columns and labels:
LITAF [1] = assay: Western blot of LITAF in oral keratinocytes; assay type: cell-based, human
Description: Cell Culture. Normal human oral keratinocytes (NOKSI) and fibroblast (HOF) cells were maintained in Dulbecco […] Eagle's medium (Sigma-Aldrich, St. Louis, MO, USA) supplemented with 10% fetal bovine serum (Atlas Bio-logicals, Fort Collins, CO, USA) and 100 units/mL penicillin and 100 μg/mL streptomycin (LifeTechnologies, Carlsbad, CA, USA). Cells were grown in incubator at 37° C. in a humidified chamber with 5% CO2.
Drugs treatment in cell culture. The cells were treated alone or with different combination of lipopolysaccharide, cyclosporine, phenytoin, and folic acid. All of them were purchased from Sigma-Aldrich (St. Louis, MO, USA). Each of them were used from 0 μg/ml to 40 μg/ml and the optimum concentration were found 10 μg/ml.
Western blot analysis. Cells were seeded in 60 mm plates with a density of 5×10^5 cells per plate and washed briefly with Dulbecco's phosphate-buffered saline (Gibco, Waltham, MA, USA). Whole cell lysates were prepared using RIPA lysis buffer containing protease inhibitor cocktail (Sigma-Aldrich). Total protein concentration was determined using the BCA reagent (Pierce, Waltham, MA, USA). 20 μg of total protein were resolved on sodium dodecyl sulfate-polyacrylamide gel electrophoresis and transferred to polyvinylidenedifluoride membrane and immunoblotted. The blots were incubated for 1 h in 1% bovine serum albumin (BSA) (Sigma-Aldrich) to block the non-specific bindings followed by over-night incubation in primary antibodies (MyD88 and pP65 from Cell Signaling Technology, and human LITAF ThermoFisher Sigma) at 4° C. on shaker. Next day, blots were washed for three times (10 min each) in Tris-buffered saline containing 1% Tween20 (TBST) followed by incubation with secondary antibody (Goat anti-rabbit IgG HRP) with 1:10,000 dilution for 1 h. Following washes, bands were visualized using gel documentation Imaging Systems (BioRad). The band intensities were quantified using software ImageJ (NIH, USA) and relative protein levels were normalized by β-actin (Cell Signaling). To perform the western blot of animal tissue samples, the gingival tissues were collected from both BABLB/c and C57BL/6 mice studies. The soft tissues were separated from the mandibular bone and then crunched. The Bradford assay was performed to measure the protein concentration of each sample. After normalization, 20 μg of whole tissue protein lysate were proceeded for western blot analysis.

[2] = test system: drug-induced gingival overgrowth (DIGO); assay: Mice study #2: preventive and active treatment of DIGO, gingival overgrowth; assay type: in vivo, C57BL/6 mice
Description: Using the C57BL/6, the DIGO were induced in 33 male mice for 14 days in an anaesthetized condition as described above. […] In the prevention group, folic acid (10 μg/ml) was included in the drinking water from the time of ligature placement until end of the study (14 days). […] In the combined prevention and treatment group, both modes of folic acid treatments had provided including PO and local gel application as described above. Mice study #2: Validation study for preventive and active treatment for DIGO. […] One set of these mice were used as a control disease group (FIG. 23A) while the other group was treated with folic acid (gel and in drinking water) (FIG. 23B). In the prevention and treatment group, folic acid (10 μg/ml) (Sigma-Aldrich, St. Louis MO) was included in the drinking water from the time of suture placement until end of the study (14 days). Additionally, gel applications were repeated daily until the end of the study (14 days). The four groups in this study were: • 1. Control group (n=2): no interventions were performed • 2. […] 2D planimetry with stereomicroscopy. […] 3D Digital Imaging and Volumetric Analysis. A 3Shape TRIOS® intraoral digital scanner was used to scan all of the dissected tissue and create a 3D STL (STereoLithography) file from each scan. Autodesk […]® (Autodesk 23 Inc., CA, USA) was used to overlay each individual scan on top of one another, keeping each of the distinct mice studies separately. Anatomical landmarks of the mandibular incisors, interdental papilla, and molars were used to make sure scans were accurately overlaid. Autodesk […]® was then used to selectively remove the mandibular incisors from each digital scan. The scans were all saved and imported into Autodesk Netfabb® (Autodesk Inc., CA, USA) where plane cuts were used to simultaneously crop all scans to include only the essential parts of the gingival tissue that would indicate an increase or decrease in growth. The cropped scans were saved and imported into open source software platform 3DSlicer 4.8, where they were volumetrically analyzed using the “Volumes” module. The quantified volume values were statistically analyzed in GraphPad Prism® 7 (GraphPad Software Inc., CA, USA).

LITAF [3] = assay: Mice study #2: LITAF immunostaining of gingival tissue; assay type: in vivo, C57BL/6 mice
Description: Mice study #2: Validation study for preventive and active treatment for DIGO. […] One set of these mice were used as a control disease group (FIG. 23A) while the other group was treated with folic acid (gel and in drinking water) (FIG. 23B). In the prevention and treatment group, folic acid (10 μg/ml) (Sigma-Aldrich, St. Louis MO) was included in the drinking water from the time of suture placement until end of the study (14 days). Additionally, gel applications were repeated daily until the end of the study (14 days). The four groups in this study were: • 1. Control group (n=2): no interventions were performed • 2.
Histopathology and Immunohistochemistry. Mice mandibles were fixed in 10% formaldehyde for overnight at 4° C. on the shaker with 45 rpm and then the solutions were replaced with 70% ethanol. The tissues were decalcified with 10% ethylenediaminetetraacetic acid (EDTA) for 1 week and were dehydrated through graded ethanol, cleared with xylene, and embedded in paraffin. 4 μm serial sections were cut in a buccal-lingual direction and stained with Hematoxylin and Eosin (HE) and observed under light microscopy for histomorphological evaluations.
For immunohistochemistry, unstained sections were deparaffinized in xylene for 10 minutes and then transferred to ethanol for 20 minutes. […]

Nc1nc2ncc(CNc3ccc(C(=O)N[C@@H](CCC(=O)O)C(=O)O)cc3)nc2c(=O)[nH]1 [folic acid]
LITAF protein level (LITAF [1]; LPS, CSA, FA each 10 μg/ml, 24 hours): inhibits CSA-induced expression
amount of LITAF protein (LITAF [1]; LPS, Phe, FA each 10 μg/ml, 24 hours): LITAF expression is reduced
amount of LITAF protein (LITAF [1]; different concentrations of folic acid (2.5-40 μg/ml), 24 hours): dose dependent effect
LITAF by western blot (LITAF [1]; normal oral keratinocyte cells, FIG. 35): downregulation
gingival overgrowth, 2D planimetry with stereomicroscopy ([2]; active treatment after 1 week of disease): even further reduce these gingival overgrowths
gingival overgrowth, clinical images ([2]; active treatment: DIGO 1 week, sutures removed and cyclosporine stopped, then folic acid p.o. & local): effectively reduce gingival overgrowths
mean gingival volume, 3D morphometric analysis ([2]; folic acid group, day 14, n=5, disease group 23.17±1.134 mm^3, p<0.005): ~16.19±0.9224 mm^3
gingival overgrowth, 2D planimetry with stereomicroscopy ([2]; preventive treatment): all mice appear to respond
gingival overgrowth, clinical images ([2]; preventive treatment, folic acid p.o. & local, 14 days): prominently reduced gingival overgrowth
overlaid 3D volumes, control vs folic acid treated ([2]; representative samples, day 14, some increase on lingual surfaces): little difference
epithelial LITAF expression, disease group relative to folic acid-treated group (LITAF [3]): higher in the disease group and uniformly distributed compared to the control and treated groups
